Reference: patent publication US9453009B2, “Synthesis of deuterated morpholine derivatives” (Concert Pharmaceuticals, Inc., priority 2008, dated 2016)
Where two headings read alike, the source gives them in different places.

Assays:
[1] = system: mtDNA-encoded protein synthesis; assay: Mitochondria Toxicity Study (Complex IV/Frataxin ratio in HepG2 cells); settings: conclusion in words
[2] = male, Sprague Dawley, rat, in vivo, 5 mg/kg
Experimental: (§1) The combo dose was prepared by mixing both by 1:1 to yield a concentration of 5 mg/mL for each compound (pH˜6) for intravenous and oral administration. The obtained solution was clear and colourless.
(§2) Male Sprague Dawley rats (body weight: 170 g to 220 g) were used in this study. Before the pharmacokinetic studies, animals were randomly assigned to the treatment groups.
(§3) The plasma samples and the dose formulation were stored at −20° C. until bioanalysis.
(§4) Plasma samples (0.1 mL) were transferred to Eppendorff tube, then 20 μL methanol, and 300 μL IS solution (50 ng/mL) were added to it. After Vortexing for 1 min and centrifuging for 5 min at 15,000 rpm, 5 μL of supernatant was injected into LC/MS/MS.
(§5) The concentrations in plasma below the limit of quantitation (LOQ=5 ng/mL) were designated as zero. The pharmacokinetic data analysis was performed using noncompartmental analysis modules in WinNonlin2.0.

[3] = in vivo; settings: male, Sprague Dawley, rat, 5 mg/kg
Experimental: as §1, §2, §3, §4, §5
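Wherever Plasma Concentration Mean is given: drug levels in rat plasma quantified by LC/MS/MS after a combined two-compound formulation, quantitation limit 5 ng/mL with lower values set to zero, parameters from noncompartmental analysis.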
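Wherever Plasma Concentration is given: drug levels in rat plasma quantified by LC/MS/MS after a combined two-compound formulation, quantitation limit 5 ng/mL with lower values set to zero, parameters from noncompartmental analysis.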
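Wherever Vd is given: drug levels in rat plasma quantified by LC/MS/MS after a combined two-compound formulation, quantitation limit 5 ng/mL with lower values set to zero, parameters from noncompartmental analysis.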
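Wherever volume of distribution at terminal phase as % of total body water is given: drug levels in rat plasma quantified by LC/MS/MS after a combined two-compound formulation, quantitation limit 5 ng/mL with lower values set to zero, parameters from noncompartmental analysis.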

[2H]C1([2H])CN(c2ccc(N3C[C@H](CNC(C)=O)OC3=O)cc2F)CC([2H])([2H])O1 [compound 10, (S)—N-((3-(3-Fluoro-4-(2,2,6,6-d4-morpholino)phenyl)-2-oxooxazolidin-5-yl)methyl)acetamide]
mitochondria toxicity [1]: comparable to that of linezolid
volume of distribution at terminal phase as % of total body water ([2]; iv): 113.43%
Plasma Concentration ([2]; po, 12 hr): 0 µg/mL
concentration at 10 hr ([3]; iv): 0 µg/mL
concentration at 12 hr ([3]; po): 0 µg/mL

CC(=O)NC[C@H]1CN(c2ccc(N3CCOCC3)c(F)c2)C(=O)O1 [linezolid]
volume of distribution at terminal phase as % of total body water ([2]; iv): 131.34%
Plasma Concentration Mean ([2]; iv, 0.25 hr): 4.60718 µg/mL
Plasma Concentration Mean ([2]; iv, 0.5 hr): 3.77624 µg/mL
Plasma Concentration Mean ([2]; iv, 1 hr): 2.79688 µg/mL
Plasma Concentration Mean ([2]; iv, 2 hr): 1.43616 µg/mL
Plasma Concentration Mean ([2]; iv, 4 hr): 0.32008 µg/mL
Plasma Concentration Mean ([2]; iv, 6 hr): 0.06305 µg/mL
Plasma Concentration Mean ([2]; iv, 8 hr): 0.01945 µg/mL
Plasma Concentration Mean ([2]; iv, 10 hr): 0.00633 µg/mL
Plasma Concentration ([2]; iv, 12 hr): 0 µg/mL
Plasma Concentration ([2]; iv, 24 hr): 0 µg/mL
Plasma Concentration Mean ([2]; po, 0.25 hr): 2.15289 µg/mL
Plasma Concentration Mean ([2]; po, 0.5 hr): 2.1806 µg/mL
Plasma Concentration Mean ([2]; po, 1 hr): 1.89282 µg/mL
Plasma Concentration Mean ([2]; po, 2 hr): 1.33756 µg/mL
Plasma Concentration Mean ([2]; po, 4 hr): 0.6125 µg/mL
Plasma Concentration Mean ([2]; po, 6 hr): 0.22499 µg/mL
Plasma Concentration Mean ([2]; po, 8 hr): 0.07133 µg/mL
Plasma Concentration Mean ([2]; po, 10 hr): 0.01992 µg/mL
Plasma Concentration Mean ([2]; po, 12 hr): 0.00172 µg/mL
Plasma Concentration ([2]; po, 24 hr): 0 µg/mL
Vd ([3]; iv): 0.76 L/kg
clearance ([3]; iv): 0.55 L/h/kg
concentration at 12 hr ([3]; iv): 0 µg/mL
concentration at 24 hr ([3]; iv): 0 µg/mL
AUC(0-inf) ([3]; po): 6.94 µg·h/mL
Cmax ([3]; po): 2.37 µg/mL
concentration at 10 hr ([3]; po): 0 µg/mL
concentration at 12 hr ([3]; po): 0 µg/mL
concentration at 24 hr ([3]; po): 0 µg/mL
